Row | SMILES | melting point
1 | CCn1cc(C(=O)O)c(=O)c2cc(Cl)c(N3CCN(c4ccccc4)CC3)cc21 | 234 to 235 °C
2 | COc1ccc(-c2cncn2-c2ccc(S(=O)(=O)NC(C)(C)C)cc2)cc1F | 229 to 232 °C
3 | CCC(=O)OCOC(=O)Nc1ccc(Cl)cc1 | 90 to 91 °C
4 | CN(C)C(=O)C(c1ccccc1)(c1ccccc1)c1ncc[nH]1 | 202 °C
5 | CC(C)(CCCC(=O)O)c1ccc2c(c1)C(=O)c1ccc(C(C)(C)CCCC(=O)O)cc1C2=O | 222 to 224 °C
6 | COC(=O)CCC#Cc1cc(Cl)ccc1NS(=O)(=O)c1ccc2c(c1)CCN2C(C)=O | 154 °C
7 | CC=C(NC(=O)C1CC1(Cl)Cl)C(=O)O (stereo not given) | 188 to 190 °C
8 | CC(C)(C)c1cc(C=Cc2ccccc2NC(=O)NC2CCCCCC2)cc(C(C)(C)C)c1O | 203 to 206 °C
9 | CCOCc1nc2c(N)nc(C)cc2n1CCCCNC(=O)C(C)C | 170 to 172 °C
10 | CCc1noc(-c2cn(-c3ccccc3OCc3ccc(Cl)cc3)cn2)n1 | 88 to 89 °C
11 | CCOC(=O)c1cc(Cl)cc(N)c1Cl | 63 to 65 °C
12 | C[C@@H](NC(=O)C1CCC1)c1cccc(C(=O)c2ccccc2)c1 | 90 to 93 °C
13 | CCOC(=O)Cn1c(-c2cc3c(cc2N)OCO3)nc2ccccc21 | 284 to 287 °C
14 | COc1cccc([C@H]2O[C@H](CC(=O)Nc3c(C)c(C)c4oc(C(=O)O)cc4c3C)C(=O)N(CC(C)(C)CO)c3ccc(Cl)cc32)c1OC | 246 to 248 °C
15 | CCOP(=O)(CCNC(=O)c1c(CC)nc2cc(OC)c(OC)cc2c1-c1ccc(OC)c(OC)c1)OCC | 157 to 158 °C
16 | CCc1ccc(Nc2nc3cc(NC(=O)c4ccccc4Nc4cccc(C(F)(F)F)c4)ccc3o2)cc1 | 174 to 176 °C
17 | Cc1cc(C#N)sc1-c1ccc2c(c1)C(C)(C)OC(=O)N2 | 195 to 200 °C
18 | Cc1ccc(C(OC2CCN(CC(=O)O)CC2)c2ccccc2)cc1 (stereo not given) | 73.5 to 75 °C
19 | CNC(=O)c1cccc(NC(=O)CCc2ccc(OC)cc2)c1 | 151 to 152 °C
20 | CN1C2CCC1CN(C(=O)c1ccco1)C2 | 106 °C
21 | CC(=O)NCC[C@@H]1CCc2ccc3nn(C)c(Br)c3c21 | 167 to 169 °C
22 | O=C(c1cccs1)N1CCc2cc(S(=O)(=O)n3cc(-c4ccccc4)[nH]c3=O)ccc21 | 258 to 260 °C
23 | N#Cc1ncn2c(-c3cccnc3)ccnc12 | 258 to 260 °C
24 | CCOc1nc(NCCN2CCCC2)nc(Nc2ccc(F)c(Cl)c2)n1 | 111 to 113 °C
25 | Fc1ccc2[nH]c3c(c2c1)Cc1ccccc1-3 | 225 to 227 °C

Row | SMILES | melting point
26 | CCN1c2ncccc2C(=O)Nc2c(C)cc(OC)nc21 | 249 to 251 °C
27 | CCCNC(=O)C(C)Cc1ccc2c(c1)c(Cc1ccc(C(=O)NS(=O)(=O)c3ccccc3C)cc1OC)cn2C (stereo not given) | 103 to 117 °C
28 | CC1(CCl)COC(N)=N1 (stereo not given) | 61 to 62 °C
29 | COc1ccc(-n2nc(C(C)CCO)cc2-c2ccc(Cl)cc2)cc1 (stereo not given) | 97.5 to 98.5 °C
30 | Cc1cc(Cn2nnn(-c3cccc(C(F)(F)F)c3)c2=O)ccc1N | 89 to 94 °C
31 | Fc1ccc(C(CCCN2CCN(c3n[nH]c4cc(Cl)ccc34)CC2)c2ccc(F)cc2)cc1 | 202 to 204 °C
32 | CC(C)(C)OC(=O)NCC1CN[C@@H]2CCO[C@H]12 (relative stereo) | 59 to 67 °C
33 | Cn1c(=O)c2ccccc2n(Cc2ccc(F)cc2)c1=N | 135 to 137 °C
34 | CCCCCN1OCCN(c2ccc(Cl)c(Cl)c2)C1=O | < 40 °C
35 | CC(=O)c1cc(NS(C)(=O)=O)ccc1F | 120 to 123 °C
36 | Cc1ncc(CC(=O)O)s1 | 144 °C
37 | NS(=O)(=O)c1cc(C(F)(F)F)cc(C(F)(F)F)c1 | 183 to 185 °C
38 | CC(C)Oc1nc2cc([N+](=O)[O-])c(-n3ccc(=O)cc3)cc2[nH]c1=NC#N | > 300 °C
39 | CCCCNc1cncc(C#N)c1 | 73 °C
40 | CC(C)c1ccc2c(c1)c(=O)[nH]c1c2c2ccccc2n1C | 315 to 325 °C
41 | COc1ccc(-c2nc(CO)c[nH]2)cc1 | 171 to 173 °C
42 | NC(=S)Nc1cnccn1 | 234 to 235 °C
43 | Cc1[nH]c(=O)c(C#N)cc1C(=O)c1ccncc1 | > 305 °C
44 | COc1ccc(N=Nc2ccc(O)c(C(=O)Nc3ccc(OC)c(-c4nn(C(C)=O)c5cc(C)nn45)c3)c2)cc1 | 282 to 283 °C
45 | CCc1nc(Cl)nc(N)c1C#N | 226 °C
46 | N#Cc1cccc(OCc2ccccc2)c1[N+](=O)[O-] | 94 to 95 °C
47 | CCCCCCCCCCCCCCc1c[nH]c(C(=O)O)c1 | 148 to 150 °C
48 | ONc1cccc(OCc2nc3ccccc3s2)c1 | 112 to 114 °C
49 | O=C(NCc1ccccn1)c1ccc(C=Cc2ccccc2OCc2ccccc2)cc1 | 123 to 127 °C
50 | CCN(CC)C(=O)CCc1cc(-c2ccc(Cl)cc2)n(-c2ccc(OC)cc2)n1 | 111 to 112 °C

Row | SMILES | melting point
51 | CC(=O)C(=Cc1cccc([N+](=O)[O-])c1)C(C)=O | 92 to 95 °C
52 | CCOC(=O)C(=O)c1ccc2c(c1)CCCO2 | 119 to 121 °C
53 | Cc1ccc2nc(Cl)nc(NN)c2c1 | > 280 °C
54 | CC(=O)NC1(c2ccccc2)CCN(CCC(CN(CCc2ccccc2)CCc2ccccc2)c2ccc(Cl)c(Cl)c2)CC1 (stereo not given) | 60 to 62 °C
55 | O=[N+]([O-])c1ccc(I)c(C(F)(F)F)c1 | 81 to 82 °C
56 | COc1cc(NC(=O)Nc2cccc3c2C2CC(=O)CCN2C3=O)nc2ccccc12 (stereo not given) | 223 to 225 °C
57 | O=C(CS)N1CCSC1COc1ccccc1O (stereo not given) | 92 to 93 °C
58 | COC(=O)COc1c(C)cc(SCc2sc(-c3ccc(C(F)(F)F)cc3)nc2C)cc1C | 104 to 105 °C
59 | CC(=N)NC=Cc1ccc([N+](=O)[O-])cc1 | 142 to 143 °C
60 | COC(=O)c1nn2c(C)csc2c1SSc1c(C(=O)OC)nn2c(C)csc12 | 193 to 194 °C
61 | O=[N+]([O-])c1cc(F)cc2c1OCCC2 | 48 to 50 °C
62 | CN1C(=O)C(c2ccccc2)(C23CC4CC(CC(C4)C2)C3)N=C1N (stereo not given) | 250 °C
63 | Cc1c(C(F)(F)C(F)(F)F)ncn(-c2c(Cl)cc(C(F)(F)F)cc2C#N)c1=O | 158 to 160 °C
64 | COC(=O)c1sc(OC)c(Br)c1O | 107 to 109 °C
65 | Cc1ccc(I)cc1Cc1ccc(-c2ccc(F)cc2)s1 | 109 to 110 °C
66 | CC(=O)OC(CCC(C)(C)C)C(C)C1CCC2C3CC=C4CC(O)CCC4(C)C3CCC12C (stereo not given) | 210 to 212 °C
67 | CCN1c2ncc(CC(=O)c3ccncc3)cc2C(=O)N(C)c2ccc(Cl)nc21 | 154 °C
68 | CCC(=O)c1cc2c(s1)CCC1CC(=O)N(c3ccc(Cl)cc3)N=C21 (stereo not given) | 135 to 138 °C
69 | Oc1nc2ccc(F)cc2nc1O | > 300 °C
70 | CCS(=O)(=O)c1ccc(Oc2ccc(Cl)c(Cl)c2)nc1 | 117 to 118 °C
71 | CN(C)CCOc1ccc(/C=C/C(=O)N2CC(CCl)c3c2cc(OCc2ccccc2)c2ncccc32)cc1 (stereo not given) | 172 to 175 °C
72 | CN1C(=O)c2cc(N)ccc2Oc2ncccc21 | 158 to 160 °C
73 | CC(CC(=O)OC(C)C)N=c1sc2ccccc2s1 (stereo not given) | 44 °C
74 | Cc1sc(-c2ccccc2)nc1COc1ccc(COc2ncccc2C#N)cc1 | 120 to 121 °C
75 | O=[N+]([O-])c1cc(F)c(Cl)c(Br)c1Cl | 51 to 53.5 °C

Source: a melting point compilation (Tetko et al.; mined from patent text by program, amines drawn as free bases though some values may be those of a salt)
